From PMC6022977, “Specificity of Induction of Glycopeptide Antibiotic Resistance in the Producing Actinomycetes” (Antibiotics, 2018) come the findings set out here.

≈ marks a conversion by molar mass, not a printed value. Where two headings read alike, the source gives them in different places. Positions of bridges follow the written chain, without caps; N, C: chain ends. Non-standard residues stand in square brackets, D forms with d. Residues, ends and D or L forms follow the SMILES beside them. *: point of attachment. Ileψ(thiazoline)Cys = CC[C@H](C)[C@H](N)C1=N[C@H](C(=O)*)CS1; dOrn = NCCC[C@@H](N)C(=O)O Where only a bound is given, the exact number is not on record here.

For one assay, the system named is N. gerenzanensis. As to conditions: for MIC, non-induced: Nonomuraea gerenzanensis non-induced.
For another assay, the system named is N. gerenzanensis pST30. As to the kind of experiment: MIC on solid media, N. gerenzanensis pST30. It counts as cell-based, Nonomuraea gerenzanensis. As to conditions: N. gerenzanensis pST30 (vanRSHAX cluster from A. teichomyceticus); V0.1 agar plates, 28 °C, 10 days; average of three independent experiments.
Another assay concerns S. coelicolor ∆vanRS. Nature of the assay: MIC on solid media, S. coelicolor ∆vanRS. The assay is classed as cell-based, Streptomyces coelicolor. To be noted: MS agar plates, 10^7 CFU sonicated hyphae, 28 °C, 10 days, average of three independent experiments.
In another assay the test system is A. teichomyceticus. As to conditions: for MIC, teicoplanin-induced: Actinoplanes teichomyceticus + 10 µg/ml teicoplanin; for MIC, non-induced: Actinoplanes teichomyceticus non-induced.
Assay [1] deals with VanY activity in N. gerenzanensis pST30. It counts as cell-based, Nonomuraea gerenzanensis. To be noted: for Effect on VanY activity (membrane extracts): N. gerenzanensis pST30 grown with subinhibitory concentrations of GPAs added at inoculum.
Protocol: To determine the correlation between the antimicrobial activity of the GPAs and their ability to induce the van resistance system in actinomycetes, we followed the enzyme activities corresponding to either VanX or VanY peptidases in cells growing in liquid culture in the presence or absence of subinhibitory concentrations of GPAs (Figure 1 and Figure 2). The D,D-dipeptidase activity of VanX (Figure 1) and the D,D-carboxypeptidase activity of VanY (Figure 2) were measured by determining the amount of D-Ala released from the hydrolysis of the D-Ala-D-Ala dipeptide and of the Nε-acetyl-L-Lys-D-Ala-D-Ala tripeptide, respectively. D-Ala release was measured by using a D-amino acid oxidase coupled to a peroxidase [25, 31].
Figure 2 VanY activity in N. gerenzanensis and N. gerenzanensis pST30 grown in the absence (dotted line) or in the presence (continuous line) of subinhibitory concentrations of GPAs added at the moment of inoculum (see material and methods). VanY-specific activity is defined as the number of nanomoles of D-Ala released by the hydrolysis of Nε-acetyl-L-Lys-D-Ala-D-Ala tripeptide at 37 °C per minute per milligram of protein contained in membrane extracts. […] The values represent the averages from three independent experiments, with a standard deviation of <5%.
(§1) S. coelicolor A3(2), its ΔvanRS mutant, A. teichomyceticus ATCC 31121, N. gerenzanensis ATCC 39727, and N. gerenzanensis pST30 were grown as described above. […] Antibiotics were added to the cultures at the moment of inoculation using concentrations calculated as the half-point of MICs (see below and Table 1), except for vancomycin (10 µg/mL) in S. coelicolor A3(2), as reported by Kwun et al. [10].
Cells were harvested by centrifugation at 3600× g for 20 min at 4 °C, and then they were suspended in 2 mL of 0.9% (w/v) NaCl per gram of cells (wet weight). All of the following manipulations were conducted at 0 to 4 °C. The mycelium was fragmented by sonication with a Sonics Vibracell VCX 130. […]
In assay [2] the test system is VanX activity in N. gerenzanensis pST30. It counts as cell-based, Nonomuraea gerenzanensis. To be noted: for Growth time within which VanX activity responds to the inducer: N. gerenzanensis pST30, subinhibitory concentrations (vancomycin 10, teicoplanin 1.75, A40926 10 µg/mL), teicoplanin to less extent; for Effect on VanX activity (cytoplasmic fraction): N. gerenzanensis pST30 grown with 10 µg/mL vancomycin, 1.75 µg/mL teicoplanin, 10 µg/mL A40926.
Protocol: (§2) The D,D-dipeptidase activity of VanX (Figure 1) and the D,D-carboxypeptidase activity of VanY (Figure 2) were measured by determining the amount of D-Ala released from the hydrolysis of the D-Ala-D-Ala dipeptide and of the Nε-acetyl-L-Lys-D-Ala-D-Ala tripeptide, respectively. D-Ala release was measured by using a D-amino acid oxidase coupled to a peroxidase [25, 31].
(§3) VanX-specific activity is defined as the number of nanomoles of D-Ala released by the hydrolysis of D-Ala-D-Ala dipeptide at 37 °C per minute per milligram of protein contained in cytoplasmic fractions.
as §1
Cells were harvested by centrifugation at 3600× g for 20 min at 4 °C, and then they were suspended in 2 mL of 0.9% (w/v) NaCl per gram of cells (wet weight). All of the following manipulations were conducted at 0 to 4 °C. The mycelium was fragmented by sonication with a Sonics Vibracell VCX 130. Sonication was carried out for 5 min on ice, with cycles of 30 s with an amplitude of 90% (90% of 60 Hz), with breaks of 10 s. The samples were then centrifuged at 39,000× g for 15 min, and the supernatants (cytoplasmic fractions) were collected. An alkaline extraction of the pellets (cell debris and membrane fractions) was carried out by adapting a protocol developed previously for extracting membrane-bound proteins [25, 36]. The sedimented pellets were resuspended in ice-cold distilled water containing proteinase inhibitors (0.19 mg/mL phenylmethanesulfonyl fluoride and 0.7 µg/mL pepstatin, both purchased from Sigma-Aldrich), and then, immediately before centrifugation (28,000× g for 15 min at 4 °C), the pH was adjusted to 12 by adding an appropriate volume of 2.5 N NaOH. Immediately after centrifugation, the supernatants were neutralized to pH 7 by adding 0.5 M sodium acetate (pH 5.4). Enzymatic activities in the supernatant (cytoplasmic fractions) and in the resuspended insoluble fractions (membranes) were assayed as reported previously [36] by measuring the release of D-Ala from commercially available dipeptide (D-Ala-D-Ala, 10 mM; Sigma-Aldrich) and tripeptide (Nε-acetyl-L-Lys-D-Ala-D-Ala, 10 mM; Sigma-Aldrich).

Assay [3] concerns VanX activity in S. coelicolor. To be noted: vancomycin 10 µg/mL.
Protocol: as §2, §3, §1
Cells were harvested by centrifugation at 3600× g for 20 min at 4 °C, and then they were suspended in 2 mL of 0.9% (w/v) NaCl per gram of cells (wet weight). All of the following manipulations were conducted at 0 to 4 °C. The mycelium was fragmented by sonication with a Sonics Vibracell VCX 130. Sonication was carried out for 5 min on ice, with cycles of 30 s with an amplitude of 90% (90% of 60 Hz), with breaks of 10 s. […]
[4] abbreviates: S. coelicolor, MS agar plates, 10^7 CFU sonicated hyphae, 28 °C, 10 days, average of three independent experiments.
Where [5] appears, read: N. gerenzanensis, V0.1 agar plates, 10^7 CFU sonicated hyphae, 28 °C, 10 days, average of three independent experiments.
[6] abbreviates: A. teichomyceticus, V0.1 agar plates, 10^7 CFU sonicated hyphae, 28 °C, 10 days, average of three independent experiments.
Setting [7] is: Nonomuraea gerenzanensis + 2 µg/ml A40926, after 48h of growth, average of three independent experiments.
[8] abbreviates: Nonomuraea gerenzanensis + 2 µg/ml A40926, after 72h of growth, average of three independent experiments.
Setting [9] is: after 48h of growth, average of three independent experiments.
Setting [10] is: after 72h of growth, average of three independent experiments.

Protocol for A. teichomyceticus: (§4) MICs were measured on solid media, since the standard broth dilution method used in unicellular bacteria to determine MICs by turbidity is compromised in mycelial actinomycetes by the formation of multicellular aggregates and by the coexistence of cells in different physiological states (e.g., vegetative mycelium, aerial mycelium, and spores).
(§5) Cryovials of WCBs were thawed at room temperature and used to inoculate a VSP medium for Nonomuraea spp. and Actinoplanes spp. or YEME for Streptomyces spp. in the presence or the absence of GPAs. The strains were grown to exponential phase (approximately 72 h) at 28 °C with shaking. The mycelium was harvested by centrifugation, suspended in 0.9% (w/v) NaCl, and fragmented by sonication with a Vibracell Albra sonicator 400 W [26]. […] The plates were dried and then incubated at 28 °C. MIC values were determined as the lowest antibiotic concentrations that inhibited visible growth after 10 days of incubation.
Protocol for S. coelicolor ∆vanRS: as §4, §5

In the case of Ramoplanin, the “Minimal inhibitory concentration (MIC)” value in the assay on S. coelicolor (setting [4]) was 0.9 ± 0.045 µg/mL; in the assay with N. gerenzanensis (setting [5]), 20 ± 1.2 µg/mL; in the assay on N. gerenzanensis pST30 it was 20 ± 1.1 µg/mL; in the assay on S. coelicolor ∆vanRS, 0.9 ± 0.025 µg/mL; in the assay with A. teichomyceticus (setting [6]), 20 ± 1 µg/mL.

Turning to Teicoplanin, the “Minimal inhibitory concentration (MIC)” value in the assay on S. coelicolor (setting [4]) turned out to be 1.5 ± 0.025 µg/mL; with N. gerenzanensis (setting [5]), 0.9 ± 0.01 µg/mL; with N. gerenzanensis pST30 it was 2.75 ± 0.15 µg/mL; in the assay with S. coelicolor ∆vanRS, 1.5 ± 0.02 µg/mL; in the assay on A. teichomyceticus (setting [6]) it was 20 ± 1.5 µg/mL. The “MIC, A40926-induced” value in the assay with N. gerenzanensis (setting [7]) is 1.2±0.03 g/ml; with N. gerenzanensis (setting [8]) it was 1.2±0.02 g/ml. Also, the “MIC, non-induced” value amounted to 0.9±0.01 g/ml in the assay with N. gerenzanensis (setting [9]), 0.9±0.015 g/ml against N. gerenzanensis (setting [10]), 20±1 g/ml against A. teichomyceticus (setting [9]) and 20±0.9 g/ml in the assay with A. teichomyceticus (setting [10]). Moreover, the “MIC, teicoplanin-induced” value in the assay with A. teichomyceticus (setting [10]) was 20±0.85 g/ml. The “Effect on VanY activity (membrane extracts)” value in assay [1] is given as “comparable to the basal level”. The “Growth time within which VanX activity responds to the inducer” value in assay [2] is reported as no more than 48 h. Besides, the “Effect on VanX activity (cytoplasmic fraction)” value in assay [2] was “induced”.

For the molecule `CC[C@H](C)[C@H](N)C1=N[C@H](C(=O)N[C@@H](CC(C)C)C(=O)N[C@H](CCC(=O)O)C(=O)N[C@H](C(=O)N[C@H]2CCCCNC(=O)[C@H](CC(N)=O)NC(=O)[C@@H](CC(=O)O)NC(=O)[C@H](Cc3cnc[nH]3)NC(=O)[C@@H](Cc3ccccc3)NC(=O)[C@H]([C@@H](C)CC)NC(=O)[C@@H](CCCN)NC2=O)[C@@H](C)CC)CS1` [Bacitracin] ({Ileψ(thiazoline)Cys}-L[dE]IK[dOrn]I[dF]H[dD]N; lactam 4-C (inferred); N-terminus assumed), the “Minimal inhibitory concentration (MIC)” value in the assay with S. coelicolor (72 h) stood at 0.9 ± 0.05 µg/mL (≈ 0.633 µM); with N. gerenzanensis (72 h), 20 ± 1.3 µg/mL (≈ 14.1 µM); in the assay with N. gerenzanensis pST30, 20 ± 1.2 µg/mL (≈ 14.1 µM); in the assay on S. coelicolor ∆vanRS, 0.9 ± 0.035 µg/mL (≈ 0.633 µM); with A. teichomyceticus (72 h), 20 ± 1.15 µg/mL (≈ 14.1 µM).

For `CN[C@H](CC(C)C)C(=O)N[C@H]1C(=O)N[C@@H](CC(N)=O)C(=O)N[C@H]2C(=O)N[C@H]3C(=O)N[C@H](C(=O)N[C@H](C(=O)O)c4cc(O)cc(O)c4-c4cc3ccc4O)[C@H](O)c3ccc(c(Cl)c3)Oc3cc2cc(c3O[C@@H]2O[C@H](CO)[C@@H](O)[C@H](O)[C@H]2O[C@H]2C[C@](C)(N)[C@H](O)[C@H](C)O2)Oc2ccc(cc2Cl)[C@H]1O` [Vancomycin], the “Minimal inhibitory concentration (MIC)” value in the assay with S. coelicolor (setting [4]) was greater than 100 µg/mL; in the assay with N. gerenzanensis (setting [5]) it was 20 ± 1.6 µg/mL (≈ 13.8 µM); in the assay with N. gerenzanensis pST30, 20 ± 1.05 µg/mL (≈ 13.8 µM); with S. coelicolor ∆vanRS, 1.25 ± 0.03 µg/mL (≈ 0.863 µM); with A. teichomyceticus (setting [6]) it was 90 ± 4.2 µg/mL (≈ 62.1 µM). In addition, the MIC, A40926-induced in the assay on N. gerenzanensis (setting [7]) is 32 ± 0.9 µg/mL; in the assay with N. gerenzanensis (setting [8]), 32 ± 0.8 µg/mL. Besides, the MIC, non-induced was 20 ± 0.8 µg/mL (≈ 13.8 µM) against N. gerenzanensis (setting [9]), 20 ± 0.5 µg/mL (≈ 13.8 µM) in the assay on N. gerenzanensis (setting [10]), 90 ± 2.5 µg/mL (≈ 62.1 µM) against A. teichomyceticus (setting [9]) and 90 ± 1.6 µg/mL (≈ 62.1 µM) with A. teichomyceticus (setting [10]). For the same molecule, the MIC, teicoplanin-induced in the assay with A. teichomyceticus (setting [10]) stood at 90 ± 2.1 µg/mL. Further, the “Change of level of VanX enzyme activity within the first 24 h from the induction” value in assay [3] is “doubled”. Further, in assay [1], the “Effect on VanY activity (membrane extracts)” value is “significantly induced”. Also, in assay [1] (N. gerenzanensis pST30 induced by vancomycin), the “Growth time at which induced VanY activity reaches its maximum value” stood at 96 h. The “Growth time within which VanX activity responds to the inducer” value in assay [2] is given as no more than 48 h. Also, the “Effect on VanX activity (cytoplasmic fraction)” value in assay [2] is listed as “induced”.
